Among the data in patent publication US20250313548A1 (Actio Biosciences, Inc., priority 2023, published 2025) are IC50 values, retold here.

pIC50: −log10 of the molar value. Structures can show the parent of a compound that is named as a salt. Some results are limits rather than exact numbers.

Chain of human, KCNT1 (Q5JUK3 whole entry): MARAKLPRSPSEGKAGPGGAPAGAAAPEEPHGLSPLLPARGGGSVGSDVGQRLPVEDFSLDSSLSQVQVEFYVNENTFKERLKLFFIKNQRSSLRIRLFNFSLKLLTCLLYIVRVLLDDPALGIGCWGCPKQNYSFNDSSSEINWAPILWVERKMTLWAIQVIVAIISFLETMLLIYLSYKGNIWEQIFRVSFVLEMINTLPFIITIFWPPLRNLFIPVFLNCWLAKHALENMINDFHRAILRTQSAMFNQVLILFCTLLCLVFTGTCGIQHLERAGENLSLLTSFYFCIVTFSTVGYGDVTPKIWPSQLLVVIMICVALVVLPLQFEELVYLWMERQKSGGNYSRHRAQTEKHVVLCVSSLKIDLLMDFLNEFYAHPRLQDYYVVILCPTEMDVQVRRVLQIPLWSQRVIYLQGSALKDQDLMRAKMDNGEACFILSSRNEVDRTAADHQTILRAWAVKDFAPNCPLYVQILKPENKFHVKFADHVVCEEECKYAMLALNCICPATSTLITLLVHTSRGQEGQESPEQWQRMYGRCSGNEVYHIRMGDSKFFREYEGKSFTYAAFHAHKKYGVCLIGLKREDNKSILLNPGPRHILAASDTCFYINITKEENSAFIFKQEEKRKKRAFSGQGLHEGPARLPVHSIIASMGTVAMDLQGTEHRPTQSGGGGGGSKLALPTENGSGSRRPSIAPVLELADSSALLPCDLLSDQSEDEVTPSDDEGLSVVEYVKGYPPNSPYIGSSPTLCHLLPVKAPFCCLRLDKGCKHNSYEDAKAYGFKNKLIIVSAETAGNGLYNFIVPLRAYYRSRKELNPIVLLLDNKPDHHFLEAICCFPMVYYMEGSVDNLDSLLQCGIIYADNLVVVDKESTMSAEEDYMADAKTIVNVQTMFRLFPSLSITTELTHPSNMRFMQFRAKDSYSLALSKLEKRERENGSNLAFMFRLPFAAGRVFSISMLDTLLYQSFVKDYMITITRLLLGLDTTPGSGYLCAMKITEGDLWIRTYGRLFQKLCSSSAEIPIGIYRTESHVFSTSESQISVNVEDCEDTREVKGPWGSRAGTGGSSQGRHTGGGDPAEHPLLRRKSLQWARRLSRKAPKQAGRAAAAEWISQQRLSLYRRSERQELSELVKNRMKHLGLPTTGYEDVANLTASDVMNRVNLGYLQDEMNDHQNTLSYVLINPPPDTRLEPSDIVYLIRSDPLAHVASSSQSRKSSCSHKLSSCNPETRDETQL

This test has as its target human, KCNT1 (Homo sapiens (Human), UniProt Q5JUK3). The test can be described thus: FLIPR Tl/K Flux Assay. The test is classed as cell-based. The note with it: HEK293 cells stably expressing human KCNT1; Tl+ flux stimulated with EC80 of agonist Loxapine. The method, then: HEK293 cells stably expressing human, KCNT1 were cultured in DMEM, 10% FBS, 100 U/mL penicillin-streptomycin and […] puromycin for selection purposes. One day before the assay, cells were detached using TrypLE™ Express and counted using a cell counter. Only cells with >85% viability were used for the assay. […] The cells were incubated overnight at 37° C., 5% (v/v) CO2.
On the day of the assay, the reagents were prepared following the FLIPR® Potassium Assay Kit manual: prepare 2× dye solution, dilute the dye with assay buffer (20 mM HEPES in 1× HBSS, PH7.4), addition of probenecid to a final concentration of 5 mM, and vortexed vigorously for 1-2 minutes. The cell plate was flicked to remove medium and tapped on paper towels to remove excess media. […] The cell plate was moved to a plate shaker, agitated at 600 rpm for two minutes, and then incubated at 25° C. for one hour.
The compounds were prepared in DMSO and transferred to a 384-well compound plate (PP, low binding), referred to as a source plate. Reference agonist (300 nM) compound and test inhibitor (10 mM) compounds were added to the compound plate and a 4-fold serial dilution was performed in DMSO. Using an ECHO dispenser, compounds were dispensed at 90 nL/well from the source plate to a 384-well compound plate (PP, low binding). After the dispensing was complete, 30 µL/well assay buffer was added to the compound plate and mixed for two minutes on a plate shaker. The cell plate, compound plate, and tips were loaded into the FLIPR instrument, and a transfer of 10 μl of 3× compound to the cell plate was initiated. The treated cell plate was kept at in the dark at 25° C. for 30 minutes. Chloride-free stimulation buffer containing 4× 2 mM Tl+ and 4×EC80 of agonist Loxapine was loaded into a 384-well compound plate (PP, low binding). After the 30-minute incubation, the cell plate, compound plate containing stimulation buffer, and FLIPR tips were loaded into the FLIPR instrument. After a baseline read, the FLIPR initiates a transfer of 10 μL of stimulation buffer containing Loxapine to the cell plate. The plate was read for 160 sec with 1 second interval reads to obtain the data.
The normalized fluorescence reading (RFU) was calculated as shown follow, while Fmax and Fmin stand for maximum and minimum of signal during defined time window. The IC50 was calculated by fitting % inhibition against log of compound concentrations with Hill equation using XLfit.
As to `O=C(N[C@H]1CCCc2nc(-c3ccnc(C4CC4)c3)oc21)c1cccc(OC(F)(F)F)c1` [Compound I-170a, (S)-N-(2-(2-Cyclopropylpyridin-4-yl)-4,5,6,7-tetrahydrobenzo[d]oxazol-7-yl)-3-(trifluoromethoxy)benzamide], the pIC50 – broadly, −log10 of the IC50, conventionally taken in molar units – is greater than 6.60.
The result for `Cn1nc(C(F)(F)F)cc1C(=O)N[C@H]1CCCc2cc(-c3ccnc(C(F)(F)F)c3)sc21` [Compound I-81a] reads greater than 6.60; that for `CS(=O)(=O)c1ccc(C(=O)N[C@@H]2CCc3nn(-c4ccnc(C(F)(F)F)c4)cc32)cc1` [Compound I-96b], less than 6.00; that for `COc1cc(-c2nc3n(n2)CCC[C@H]3NC(=O)c2cc(C(F)(F)F)nn2C)ccn1` [Compound I-474b], less than 6.00.
The result for “(rac)-N-(2-(2-Cyclopropylpyridin-4-yl)-4,5,6,7-tetrahydropyrazolo[1,5-a]pyridin-4-yl)-6-(trifluoromethyl)nicotinamide [Compound I-65]” reads greater than 6.60.
`Cn1nc(C2CCC2)cc1C(=O)N[C@H]1CCCn2nc(-c3ccnc(C(F)(F)F)c3)cc21` [Compound I-362a]: the pIC50 is greater than 6.60.
Regarding `O=C(N[C@@H]1CCc2nn(-c3ccnc(C(F)(F)F)c3)cc21)c1cc(Cl)cc(Cl)c1` [Compound I-99b], the pIC50 was 6.00 to 6.30.
On to `CC(F)(F)c1cc(-c2cc3n(n2)CC[C@@H]3NC(=O)c2cnn(C(F)(F)F)c2)ccn1` [Compound I-538a, (S)-N-(2-(2-(1,1-Difluoroethyl)pyridin-4-yl)-5,6-dihydro-4H-pyrrolo[1,2-b]pyrazol-4-yl)-1-(trifluoromethyl)-1H-pyrazole-4-carboxamide], for which the pIC50 is greater than 6.60.
The result for `Cc1cnc(C(F)(F)F)cc1-c1cc2n(n1)CCCC[C@@H]2NC(=O)c1cc(C(F)(F)F)nn1C` [Compound I-311a, (S)-1-Methyl-N-(2-(5-methyl-2-(trifluoromethyl)pyridin-4-yl)-5,6,7,8-tetrahydro-4H-pyrazolo[1,5-a]azepin-4-yl)-3-(trifluoromethyl)-1H-pyrazole-5-carboxamide] reads greater than 6.60; that for `O=C(N[C@H]1CCCc2nn(-c3ccnc(C(F)(F)F)c3)cc21)c1cc(Cl)cc(C(F)(F)F)c1` [Compound I-2a, (S)-3-Chloro-5-(trifluoromethyl)-N-(2-(2-(trifluoromethyl)pyridin-4-yl)-4,5,6,7-tetrahydro-2H-indazol-4-yl)benzamide], greater than 6.60; that for `Cc1cc(C#N)cc(C(=O)N[C@H]2CCCn3nc(-c4ccnc(C5CC5)c4)cc32)c1` [Compound I-281a, (S)-3-Cyano-N-(2-(2-cyclopropylpyridin-4-yl)-4,5,6,7-tetrahydropyrazolo[1,5-a]pyridin-4-yl)-5-methylbenzamide TFA salt], greater than 6.60.
`Cc1nc(C(=O)N[C@H]2CCn3nc(-c4ccnc(C(F)(F)F)c4)cc32)n(C)n1` [Compound I-221a, (S)-1,3-Dimethyl-N-(2-(2-(trifluoromethyl)pyridin-4-yl)-5,6-dihydro-4H-pyrrolo[1,2-b]pyrazol-4-yl)-1H-1,2,4-triazole-5-carboxamide] had a pIC50 greater than 6.60.
`CC(F)(F)c1cc(-c2nc3c(o2)CCC[C@@H]3NC(=O)c2cncc(F)c2)ccn1` [Compound I-544a, (S)—N-(2-(2-(1,1-difluoroethyl)pyridin-4-yl)-4,5,6,7-tetrahydrobenzo[d]oxazol-4-yl)-5-fluoronicotinamide] gave a pIC50 greater than 6.60.
With `Cc1cnc(C(F)(F)F)cc1-c1nc2c(o1)CCC[C@@H]2NC(=O)c1cc(C(F)(F)F)nn1C` [Compound I-178a, (S)-1-Methyl-N-(2-(5-methyl-2-(trifluoromethyl)pyridin-4-yl)-4,5,6,7-tetrahydrobenzo[d]oxazol-4-yl)-3-(trifluoromethyl)-1H-pyrazole-5-carboxamide] the figure was greater than 6.60; with `Cc1c(-c2ccnc(C(F)(F)F)c2)nn2c1[C@H](NC(=O)c1cc(C(F)(F)F)nn1C)CCC2` [Compound I-353b], 6.00 to 6.30; with `O=C(N[C@H]1CCCc2oc(-c3ccnc(C4CC4)c3)nc21)c1cn(C(F)(F)F)nc1C(F)(F)F` [Compound I-519a, (S)—N-(2-(2-cyclopropylpyridin-4-yl)-4,5,6,7-tetrahydrobenzo[d]oxazol-4-yl)-1,3-bis(trifluoromethyl)-1H-pyrazole-4-carboxamide], greater than 6.60.
Regarding `Cn1nc(C(F)(F)F)nc1C(=O)N[C@@H]1CCCc2oc(-c3ccnc(C4CC4)c3)nc21` [Compound I-504b], the pIC50 is less than 6.00.
In the case of `N#Cc1cc(C(=O)N[C@H]2CCn3nc(-c4ccnc(C(F)(F)F)c4)cc32)cc(C(F)(F)F)c1` [Compound I-288a, (S)-3-Cyano-5-(trifluoromethyl)-N-(2-(2-(trifluoromethyl)pyridin-4-yl)-5,6-dihydro-4H-pyrrolo[1,2-b]pyrazol-4-yl)benzamide], the pIC50 was greater than 6.60.
`O=C(N[C@H]1CCc2nn(-c3ccnc(C(F)(F)F)c3)cc21)C12CC(C(F)(F)F)(C1)C2` [Compound I-553a, (S)-3-(Trifluoromethyl)-N-(2-(2-(trifluoromethyl)pyridin-4-yl)-2,4,5,6-tetrahydrocyclopenta[c]pyrazol-4-yl)bicyclo[1.1.1]pentane-1-carboxamide]: the pIC50 is greater than 6.60.
The compound `O=C(NC1CCCc2nn(-c3ccnc(C(F)(F)F)c3)cc21)c1ccc(C(F)(F)F)cc1` (racemic) [Compound I-16, (rac)-4-(Trifluoromethyl)-N-(2-(2-(trifluoromethyl)pyridin-4-yl)-4,5,6,7-tetrahydro-2H-indazol-4-yl)benzamide] showed a pIC50 greater than 6.60.
The result for `CC(F)(F)C12CC(C(=O)N[C@H]3CCn4nc(-c5cc(C(F)(F)F)ncc5F)cc43)(C1)C2` [Compound I-526a, (S)-3-(1,1-Difluoroethyl)-N-(2-(5-fluoro-2-(trifluoromethyl)pyridin-4-yl)-5,6-dihydro-4H-pyrrolo[1,2-b]pyrazol-4-yl)bicyclo[1.1.1]pentane-1-carboxamide] reads greater than 6.60; that for “(S)-3-Chloro-5-methyl-N-(2-(2-(trifluoromethyl)pyridin-4-yl)-2,4,5,6-tetrahydrocyclopenta[c]pyrazol-4-yl)benzamide [Compound I-129a]”, greater than 6.60; that for `Cn1nc(C(F)(F)F)nc1C(=O)N[C@H]1CCCc2oc(-c3ccnc(C(F)(F)F)c3)nc21` [Compound I-241a, (S)-1-Methyl-3-(trifluoromethyl)-N-(2-(2-(trifluoromethyl)pyridin-4-yl)-4,5,6,7-tetrahydrobenzo[d]oxazol-4-yl)-1H-1,2,4-triazole-5-carboxamide], greater than 6.60.
Compound `O=C(N[C@H]1CCn2nc(-c3ccnc(C4CC4)c3)cc21)C12CC(CC(F)(F)F)(C1)C2` [Compound I-584a, (S)-N-(2-(2-Cyclopropylpyridin-4-yl)-5,6-dihydro-4H-pyrrolo[1,2-b]pyrazol-4-yl)-3-(2,2,2-trifluoroethyl)bicyclo[1.1.1]pentane-1-carboxamide] gave a pIC50 greater than 6.60.
Compound `COc1cc(C(=O)N[C@H]2CCn3nc(-c4cc(C(F)(F)F)ncc4F)cc32)ccn1` [Compound I-145a, (S)—N-(2-(5-Fluoro-2-(trifluoromethyl)pyridin-4-yl)-5,6-dihydro-4H-pyrrolo[1,2-b]pyrazol-4-yl)-2-methoxyisonicotinamide] had a pIC50 greater than 6.60.
